Experimental data reported in patent US7763648B2, “Oxa-steroids derivatives as selective progesterone receptor modulators” (Janssen Pharmaceutica N.V., priority 2006, dated 2010).
pIC50: −log10 of the molar value.

Assays:
[1] = system: A549 Human lung carcinoma cells; test: A549 Human Lung Cell Assay (transfected, dexamethasone challenge, Luc-assay); format: cell-based; settings: Dexamathasone challenge, 24 h
Experimental: A549 Human Lung Cell Assay
A549 Human lung carcinoma cells were grown in F-12K Nutrient Mixture containing 10% (v/v) fetal bovine serum (FBS; Invitrogen), 2 mM glutamine and 0.15% sodium dicarbonate (Invitrogen).
A549 cells were split 1 to 3 in 175 cm tissue culture flask. The cells were incubated at 37° C. in CO2 incubator until the cells were 95% confluent (typically 24-30 hours).
The following solutions were prepared in sterile tubes: (a) Solution A: 1.5 μg/ml of DNA in 8.5 ml OPTI-MEM I Reduced Serum Medium. (GIBCO cat# 31985) and (b) Solution B: 6 μl/ml of DMRIE-C Reagent into […] OPTI-MEM I. The two solutions were combined and mixed gently, then incubated at room temperature for 40 minutes.
The A549 cells prepared above were washed with […] of OPTI-MEM I. The medium was removed and 17 ml of the lipid-DNA complex solution was overlayed onto cells. The cells ere then incubated for 16 h at 37° C. in CO2 incubator. The DNA-containing medium was removed and 30 ml of growth medium was added. (5% Charcoal treated FBS) After 5-6 h, the cells were seeded in a 96 well plate and the cells incubated overnight at 37° C. in CO2 incubator.
To each well was then added 5 μl of test compounds and the cells incubated at 37° C. for 10 min. 5 μL of Dexamathasone (CAS [50-02-2]), was then added to each well for challenger and the cells incubated at 37° C. in CO2 incubator for 24 h. 100 μl of Luc-assay buffer was then added into each cell well and the cells incubated for 30 min at room temperature. A 150 μL sample from each well was then transferred into a DYNEX Microlitel plate and read on Top-counter.

[2] = system: T47D human breast cancer cells; test: T47D Human Breast Cancer Cells Assay (alkaline phosphatase); format: cell-based; settings: 24 h with test compound, luminescence
Experimental: T47D Human Breast Cancer Cells Assay
T47D human breast cancer cells were grown in RPMI medium without phenol red (Invitrogen) containing 10% (v/v) heat-inactivated fetal bovine serum (FBS; Hyclone), 1% (v/v) penicillin-streptomycin (Invitrogen), 1% (w/v) glutamine (Invitrogen), and […] insulin (Sigma). Incubation conditions were 37° C. in a humidified 5% (v/v) carbon dioxide environment.
The cells were plated in 96-well tissue culture plates at 10,000 cells per well in assay medium [RPMI medium without phenol red (Invitrogen) containing 5% (v/v) charcoal-treated FBS (Hyclone) and 1% (v/v) penicillin-streptomycin (Invitrogen)]. Two days later, the medium was decanted and test compound or control were added at a final concentration of 0.1% (v/v) dimethyl sulfoxide in fresh assay medium. Twenty-four hours later, an alkaline phosphatase assay was performed using a SEAP kit (BD Biosciences Clontech, Palo Alto, Calif.). Briefly, the medium was decanted and the cells were fixed for 30 minutes at room temperature with 5% (v/v) formalin (Sigma). The cells were washed once with room temperature Hank's buffered saline solution (Invitrogen). Equal volumes (0.05 mL) of 1× Dilution Buffer, Assay Buffer and 1:20 substrate/enhancer mixture were then added. After 1 hour incubation at room temperature in the dark, the lysate was transferred to a white 96-well plate (Dynex) and luminescence was read using a LuminoSkan Ascent (Thermo Electron, Woburn, Mass.).

Structure (SMILES) | pIC50 [1] | pIC50 [2]
COc1ccc(C#C[C@]2(O)CC[C@H]3[C@@H]4OCC5=CC(=O)CCC5=C4[C@@H](c4ccc(N(C)C)cc4)C[C@@]32C)cc1 [Compound 15, 11-(4-Dimethylamino-phenyl)-17-hydroxy-17-(4-methoxy-phenylethynyl)-13-methyl-1,2,8,11,12,13,14,15,16,17-decahydro-6H-7-oxa-cyclopenta[a]phenanthren-3-one] | 7.10 | 8.49
CN(C)c1ccc([C@H]2C[C@@]3(C)[C@@H](CC[C@@]3(O)C#Cc3cccc(F)c3)[C@@H]3OCC4=CC(=O)CCC4=C32)cc1 [Compound 17, 11-(4-Dimethylamino-phenyl)-17-(3-fluoro-phenylethynyl)-17-hydroxy-13-methyl-1,2,8,11,12,13,14,15,16,17-decahydro-6H-7-oxa-cyclopenta[a]phenanthren-3-one] | 7.25 | 8.99
CN(C)c1ccc([C@H]2C[C@@]3(C)[C@@H](CC[C@@]3(O)C#Cc3cc(F)cc(F)c3)[C@@H]3OCC4=CC(=O)CCC4=C32)cc1 [Compound 18, 17-(3,5-Difluoro-phenylethynyl)-11-(4-dimethylamino-phenyl)-17-hydroxy-13-methyl-1,2,8,11,12,13,14,15,16,17-decahydro-6H-7-oxa-cyclopenta[a]phenanthren-3-one] | 7.46 | 9.04
CN(C)c1ccc([C@H]2C[C@@]3(C)[C@@H](CC[C@@]3(O)C#Cc3cccc(Cl)c3)[C@@H]3OCC4=CC(=O)CCC4=C32)cc1 [Compound 20, 17-(3-Chloro-phenylethynyl)-11-(4-dimethylamino-phenyl)-17-hydroxy-13-methyl-1,2,8,11,12,13,14,15,16,17-decahydro-6H-7-oxa-cyclopenta[a]phenanthren-3-one] | 7.31 | 7.90
Cc1cccc(C#C[C@]2(O)CC[C@H]3[C@@H]4OCC5=CC(=O)CCC5=C4[C@@H](c4ccc(N(C)C)cc4)C[C@@]32C)c1 [Compound 25, 11-(4-Dimethylamino-phenyl)-17-hydroxy-13-methyl-7-m-tolylethynyl-1,2,8,11,12,13,14,15,16,17-decahydro-6H-7-oxa-cyclopenta[a]phenanthren-3-one] | 7.44 | 8.55
CN(C)c1ccc([C@H]2C[C@@]3(C)[C@@H](CC[C@@]3(O)C#Cc3ccsc3)[C@@H]3OCC4=CC(=O)CCC4=C32)cc1 [Compound 29, 11-(4-Dimethylamino-phenyl)-17-hydroxy-13-methyl-17-thiophen-3-ylethynyl-1,2,8,11,12,13,14,15,16,17-decahydro-6H-7-oxa-cyclopenta[a]phenanthren-3-one] | 7.25 | 8.81
CN(C)CC#C[C@]1(O)CC[C@H]2[C@@H]3OCC4=CC(=O)CCC4=C3C(c3ccc(N(C)C)cc3)C[C@@]21C (some centres unmarked) [Compound 31] | < 5.52 | < 6.00

Other lines, results leading:

pIC50 [1] | pIC50 [2] | Structure (SMILES)
7.19 | 8.85 | CN(C)c1ccc([C@H]2C[C@@]3(C)[C@@H](CC[C@@]3(O)C#Cc3ccccc3F)[C@@H]3OCC4=CC(=O)CCC4=C32)cc1 [Compound 16, 11-(4-Dimethylamino-phenyl)-17-(2-fluoro-phenylethynyl)-17-hydroxy-13-methyl-1,2,8,11,12,13,14,15,16,17-decahydro-6H-7-oxa-cyclopenta[a]phenanthren-3-one]
7.19 | 8.97 | CN(C)c1ccc([C@H]2C[C@@]3(C)[C@@H](CC[C@@]3(O)C#Cc3ccccc3Cl)[C@@H]3OCC4=CC(=O)CCC4=C32)cc1 [Compound 19, 17-(2-Chloro-phenylethynyl)-11-(4-dimethylamino-phenyl)-17-hydroxy-13-methyl-1,2,8,11,12,13,14,15,16,17-decahydro-6H-7-oxa-cyclopenta[a]phenanthren-3-one]
7.20 | 8.07 | CN(C)c1ccc([C@H]2C[C@@]3(C)[C@@H](CC[C@@]3(O)C#Cc3ccccc3Br)[C@@H]3OCC4=CC(=O)CCC4=C32)cc1 [Compound 21, 17-(2-Bromo-phenylethynyl)-11-(4-dimethylamino-phenyl)-17-hydroxy-13-methyl-1,2,8,11,12,13,14,15,16,17-decahydro-6H-7-oxa-cyclopenta[a]phenanthren-3-one]
7.29 | 8.50 | CN(C)c1ccc([C@H]2C[C@@]3(C)[C@@H](CC[C@@]3(O)C#Cc3ccccc3C(F)(F)F)[C@@H]3OCC4=CC(=O)CCC4=C32)cc1 [Compound 22, 11-(4-Dimethylamino-phenyl)-17-hydroxy-13-methyl-17-(2-trifluoromethyl-phenylethynyl)-1,2,8,11,12,13,14,15,16,17-decahydro-6H-7-oxa-cyclopenta[a]phenanthren-3-one]
7.34 | 8.58 | CN(C)c1ccc([C@H]2C[C@@]3(C)[C@@H](CC[C@@]3(O)C#Cc3cccc(C(F)(F)F)c3)[C@@H]3OCC4=CC(=O)CCC4=C32)cc1 [Compound 23, 11-(4-Dimethylamino-phenyl)-17-hydroxy-13-methyl-17-(3-trifluoromethyl-phenylethynyl)-1,2,8,11,12,13,14,15,16,17-decahydro-6H-7-oxa-cyclopenta[a]phenanthren-3-one]
6.95 | 8.24 | Cc1ccccc1C#C[C@]1(O)CC[C@H]2[C@@H]3OCC4=CC(=O)CCC4=C3[C@@H](c3ccc(N(C)C)cc3)C[C@@]21C [Compound 24, 11-(4-Dimethylamino-phenyl)-17-hydroxy-13-methyl-17-o-tolylethynyl-1,2,8,11,12,13,14,15,16,17-decahydro-6H-7-oxa-cyclopenta[a]phenanthren-3-one]
